# Laboratory results: article PMC4160570, “Effects of proarrhythmic drugs on relaxation time and beating pattern in rat engineered heart tissue” (Basic Research in Cardiology, 2014)
# Where two headings read alike, the source gives them in different places.
# System: rat engineered heart tissue (EHT)
# Experiment: Video-optical analysis of contractile parameters of spontaneously beating rat EHTs (50 nM epinephrine)
# Conditions: for significant T2 prolongation (p<0.05 and at least 15 % vs baseline): 1-, 10-, 100-fold FTPC, 50 nM epinephrine, n = 4–8; for irregular beating as the primary effect: sinusoidal fluctuation of twitch amplitudes, time dependent; for effect on 4AP-induced beating irregularity and aftercontractions / T2 values: 4AP 10 mM; for effect on 4AP-induced beating irregularity and aftercontractions: SEA0400 2 µM or JTV519 2 µM; for relaxation remaining prolonged with 4AP in presence of inhibitor: high concentration of 4AP plus SEA0400 or JTV519
# [1] = 4AP 10 mM in absence and presence of the blocker, SEA0400 2 µM, JTV519 2 µM
compound,measurement,setting,value
CCN(CC)CCCN(c1ccccc1)C1Cc2ccccc2C1 [Aprindine],significant T2 prolongation (p<0.05 and at least 15 % vs baseline),,Significant T2 prolongations
CC(C)COCC(CN(Cc1ccccc1)c1ccccc1)N1CCCC1 (stereo not shown) [Bepridil],published IKs IC50 relative to threshold for group 1 or 2 effects,,at or below the threshold for group 1 or 2 effects
same,significant T2 prolongation (p<0.05 and at least 15 % vs baseline),,Significant T2 prolongations
same,irregular beating as the primary effect,,induced irregular beating
CN(C)CCOC(c1ccccc1)c1ccccc1 [Diphenhydramine],effect on contraction time T1 (group 3),1–100× FTPC,prolongation of contraction time T1
CN(CCOc1ccc(NS(C)(=O)=O)cc1)CCc1ccc(NS(C)(=O)=O)cc1 [Dofetilide],effect on T2 at 100-fold IC50 concentrations,,lack of effect
same,effect on the parameters studied (group 4),1–100× FTPC,without any effect on the parameters studied
O=c1[nH]c2ccccc2n1CCCN1CCC(n2c(=O)[nH]c3cc(Cl)ccc32)CC1 [Domperidone],significant T2 prolongation (p<0.05 and at least 15 % vs baseline),,Significant T2 prolongations
CC(C)(C)c1ccc(C(=O)CCCN2CCC(OC(c3ccccc3)c3ccccc3)CC2)cc1 [Ebastine],significant T2 prolongation (p<0.05 and at least 15 % vs baseline),,Significant T2 prolongations
CC(C)(C(=O)O)c1ccc(C(O)CCCN2CCC(C(O)(c3ccccc3)c3ccccc3)CC2)cc1 (stereo not shown) [Fexofenadine],significant T2 prolongation (p<0.05 and at least 15 % vs baseline),,Significant T2 prolongations
CC[C@H](CO)Nc1nc(NCc2ccccc2)n2ncc(C(C)C)c2n1 [GP 0210],Effect on EHT contractility,"NCEs tested at 0.1, 1, 10 µM",-
CCCCCCCN(CC)CCCC(O)c1ccc(NS(C)(=O)=O)cc1 (stereo not shown) [Ibutilide],effect on T2 at 100-fold IC50 concentrations,,lack of effect
same,effect on the parameters studied (group 4),1–100× FTPC,without any effect on the parameters studied
CN(C)CCCN1c2ccccc2CCc2ccccc21 [Imipramine],irregular beating as the primary effect,,induced irregular beating
COc1ccc2c(c1)CN(C(=O)CCN1CCC(Cc3ccccc3)CC1)CCS2 [JTV519],effect on the T2-prolonging effect of 4AP,[1],reduced the effect of 4AP
same,effect on 4AP-induced beating irregularity and aftercontractions,,completely abolished beating irregularity and aftercontractions
same,T2 values,"SEA0400 2 µM, JTV519 2 µM",80 ms
same,relaxation remaining prolonged with 4AP in presence of inhibitor,,~ 200%
COc1c(N2C[C@@H]3CCCN[C@@H]3C2)c(F)cc2c(=O)c(C(=O)O)cn(C3CC3)c12 [Moxifloxacin],T2-effective concentrations,,100 fold FTPC
same,significant T2 prolongation (p<0.05 and at least 15 % vs baseline),,Significant T2 prolongations
CCN(CC)CCNC(=O)c1ccc(N)cc1 [Procainamide],significant T2 prolongation (p<0.05 and at least 15 % vs baseline),,Significant T2 prolongations
CCOc1ccc(Oc2ccc(OCc3cc(F)ccc3F)cc2)c(N)c1 [SEA0400],effect on the T2-prolonging effect of 4AP,[1],reduced the effect of 4AP
same,effect on 4AP-induced beating irregularity and aftercontractions,,completely abolished beating irregularity and aftercontractions
same,T2 values,"SEA0400 2 µM, JTV519 2 µM",78 ms
same,relaxation remaining prolonged with 4AP in presence of inhibitor,,~ 200%
C[C@@H]1CN(c2c(F)c(N)c3c(=O)c(C(=O)O)cn(C4CC4)c3c2F)C[C@H](C)N1 [Sparfloxacin],significant T2 prolongation (p<0.05 and at least 15 % vs baseline),,Significant T2 prolongations
same,changes associated with T2 prolongation,"original recording, Supplemental Fig. 4",marked reduction of beating rate and an increase in twitch force
CC(C)(C)c1ccc(C(O)CCCN2CCC(C(O)(c3ccccc3)c3ccccc3)CC2)cc1 (stereo not shown) [Terfenadine],effect on T2 (group 3),1–100× FTPC,shortening of T2
CCCCNc1ccc(C(=O)OCCN(C)C)cc1 [Tetracaine],effect on the T2-prolonging effect of 4AP,[1],increased the T2-prolonging effect of 4AP
same,ability to mimic the effect of JTV519 on 4AP-induced changes,"flecainide 0.5 µM, data not shown",did not mimic the effect of JTV519
NC1=N[C@H](O)[C@H]2[C@H]3O[C@]4(O)O[C@@H]([C@@H](O)[C@@]2(N1)[C@@H]4O)[C@]3(O)CO [Tetrodotoxin],effect of pure INa blockers on T1,,did not prolong T1
same,effect on the T2-prolonging effect of 4AP,,increased the T2-prolonging effect of 4AP
C/C=C(/C)C(=O)O[C@H]1C(C)=C2[C@H]([C@@H]1OC(=O)CCCCCCC)[C@@](C)(OC(C)=O)C[C@H](OC(=O)CCC)[C@@]1(O)[C@H]2OC(=O)[C@@]1(C)O [Thapsigargin],"effect on time of relaxation, alone",3–30 nM,did not affect time of relaxation as such
same,effect on the T2-prolonging effect of 4AP,[1],increased the T2-prolonging effect of 4AP
